Results published in patent US20240270762A1, “PENICILLIN-BINDING PROTEIN INHIBITORS” (priority 2021, published 2024).
Converted amounts (≈) assume the structure as drawn. Like-named read-outs stand apart in the source and are kept apart here.

How the values were obtained:
N. gonorrhoeae WHO K = assay: Liquid broth MIC in Fastidious broth; details: Neisseria gonorrhoeae
N. gonorrhoeae WHO M = assay: Liquid broth MIC in Fastidious broth; details: Neisseria gonorrhoeae
N. gonorrhoeae FA1090 = assay: Liquid broth MIC in Fastidious broth; details: Neisseria gonorrhoeae
P. aeruginosa CDC-0095 = assay: microbe, parasite or virus in culture; format: cell-based; details: Pseudomonas aeruginosa, CDC0095, read-out: Minimum inhibitory concentration, P. aeruginosa CDC-0095
A. baumannii CDC-0033 = assay: microbe, parasite or virus in culture; format: cell-based; details: Acinetobacter baumannii, CDC0033, read-out: MIC, A. baumannii CDC-0033
N. gonorrhoeae WHO Z = assay: Liquid broth MIC in Fastidious broth; details: Neisseria gonorrhoeae
N. gonorrhoeae WHO G = assay: Liquid broth MIC in Fastidious broth; details: Neisseria gonorrhoeae
P. aeruginosa CDC-0054 = assay: microbe, parasite or virus in culture; format: cell-based; details: Pseudomonas aeruginosa, CDC0054, read-out: Minimum inhibitory concentration, P. aeruginosa CDC-0054
[1] = target: T1, PBP3 from Pseudomonas aeruginosa (PAO1) (Pseudomonas aeruginosa, UniProt G3XD46); assay: Bocillin-FL fluorescence polarization competition binding, P. aeruginosa PBP3; details: Binding affinity to P. aeruginosa PBP3; fluorescence polarization competition binding assay using Bocillin-FL; read-out: P. aeruginosa PBP3 Potency
T1 construct: made in house
T1 sequence (G3XD46 whole entry): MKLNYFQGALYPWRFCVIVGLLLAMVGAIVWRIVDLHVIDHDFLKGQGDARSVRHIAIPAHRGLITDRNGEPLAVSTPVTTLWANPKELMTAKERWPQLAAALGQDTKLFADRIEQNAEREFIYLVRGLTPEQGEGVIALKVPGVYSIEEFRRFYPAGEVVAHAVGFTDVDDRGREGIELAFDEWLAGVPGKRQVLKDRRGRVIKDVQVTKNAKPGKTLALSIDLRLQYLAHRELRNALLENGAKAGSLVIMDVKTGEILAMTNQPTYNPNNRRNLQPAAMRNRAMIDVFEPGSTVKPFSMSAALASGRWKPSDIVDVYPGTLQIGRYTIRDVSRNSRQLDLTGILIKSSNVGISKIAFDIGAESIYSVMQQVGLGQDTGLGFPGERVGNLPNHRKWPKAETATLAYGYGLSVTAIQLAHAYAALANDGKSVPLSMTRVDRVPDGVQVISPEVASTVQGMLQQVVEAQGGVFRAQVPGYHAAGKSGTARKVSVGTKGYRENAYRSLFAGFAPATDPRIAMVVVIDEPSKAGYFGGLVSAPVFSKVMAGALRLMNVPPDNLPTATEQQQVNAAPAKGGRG
Method in brief: (§1)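 Purified PBPs pre-incubated with inhibitor (E. coli PBP3 1.5 μM, 30 min; P. aeruginosa PBP3 0.75 μM, A. baumannii PBP1a 1 μM and PBP3 0.2 μM, 15 min), then Bocillin-FL 0.1 μM (0.05 μM for PBP1a) added; FP read up to 60 min. EC50 = concentration halving bound Bocillin-FL.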

[2] = target: T2, PBP3 from Escherichia coli (K-12) (Escherichia coli, UniProt P0AD68); assay: Bocillin-FL fluorescence polarization competition binding, E. coli PBP3
T2 construct: made in house
T2 sequence (P0AD68 1-577): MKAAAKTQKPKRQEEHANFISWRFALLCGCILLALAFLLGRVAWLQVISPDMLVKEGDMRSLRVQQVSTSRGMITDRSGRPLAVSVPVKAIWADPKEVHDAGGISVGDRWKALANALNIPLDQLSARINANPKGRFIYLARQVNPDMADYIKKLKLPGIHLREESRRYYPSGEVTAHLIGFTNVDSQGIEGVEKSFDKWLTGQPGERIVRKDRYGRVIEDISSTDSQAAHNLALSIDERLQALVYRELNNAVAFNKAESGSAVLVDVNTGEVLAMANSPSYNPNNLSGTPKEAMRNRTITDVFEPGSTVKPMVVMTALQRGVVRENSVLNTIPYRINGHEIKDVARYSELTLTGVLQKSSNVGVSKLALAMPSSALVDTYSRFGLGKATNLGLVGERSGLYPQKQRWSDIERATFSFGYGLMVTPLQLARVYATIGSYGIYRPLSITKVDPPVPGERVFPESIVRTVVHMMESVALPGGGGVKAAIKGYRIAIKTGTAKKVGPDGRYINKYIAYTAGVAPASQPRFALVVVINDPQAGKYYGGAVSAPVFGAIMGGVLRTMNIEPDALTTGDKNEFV
Method in brief: as §1

[3] = test system: N. gonorrhoeae ATCC 49226; assay: Liquid broth MIC in Fastidious broth; details: Neisseria gonorrhoeae
N. gonorrhoeae MS11 = assay: Liquid broth MIC in Fastidious broth; details: Neisseria gonorrhoeae
[4] = read-out: Minimum Inhibitory Concentration, WHO K
[5] = read-out: Minimum Inhibitory Concentration, WHO M
[6] = FA1090, read-out: Minimum Inhibitory Concentration, FA 1090
[7] = read-out: Minimum Inhibitory Concentration, WHO Z
[8] = read-out: Minimum Inhibitory Concentration, WHO G
[9] = ATCC49226, read-out: Minimum Inhibitory Concentration, ATCC 49226
[10] = MS11, read-out: Minimum Inhibitory Concentration, MS11
[11] = read-out: Minimum Inhibitory Concentration (MIC), N. gonorrhoeae WHO K
[12] = read-out: Minimum Inhibitory Concentration (MIC), N. gonorrhoeae WHO M
[13] = FA1090, read-out: Minimum Inhibitory Concentration (MIC), N. gonorrhoeae FA 1090
[14] = read-out: Minimum Inhibitory Concentration (MIC), N. gonorrhoeae WHO Z
[15] = read-out: Minimum Inhibitory Concentration (MIC), N. gonorrhoeae WHO G
[16] = ATCC49226, read-out: Minimum Inhibitory Concentration (MIC), N. gonorrhoeae ATCC 49226
[17] = MS11, read-out: Minimum Inhibitory Concentration (MIC), N. gonorrhoeae MS11

Row | Structure (SMILES) | MIC (N. gonorrhoeae WHO K; [4]) [µg/mL] | MIC (N. gonorrhoeae WHO M; [5]) [µg/mL] | MIC (N. gonorrhoeae FA1090; [6]) [µg/mL] | MIC (P. aeruginosa CDC-0095) [µg/mL] | MIC (A. baumannii CDC-0033) [µg/mL] | MIC (N. gonorrhoeae WHO Z; [7]) [µg/mL] | MIC (N. gonorrhoeae WHO G; [8]) [µg/mL] | MIC (P. aeruginosa CDC-0054) [µg/mL] | IC50 [1] [µM] | EC50 [2] [µM] | MIC [3, 9] [µg/mL] | MIC (N. gonorrhoeae MS11; [10]) [µg/mL] | MIC (N. gonorrhoeae WHO K; [11]) [µg/mL] | MIC (N. gonorrhoeae WHO M; [12]) [µg/mL] | MIC (N. gonorrhoeae FA1090; [13]) [µg/mL] | MIC (N. gonorrhoeae WHO Z; [14]) [µg/mL] | MIC (N. gonorrhoeae WHO G; [15]) [µg/mL] | MIC [3, 16] [µg/mL] | MIC (N. gonorrhoeae MS11; [17]) [µg/mL]
1 | O=C(NCCCS(=O)(=O)N1CCN(C(=O)NC(C(=O)N[C@H]2Cc3ccc(F)c(C(=O)O)c3OB2O)c2cc(F)c(O)c(O)c2Cl)C1=O)c1cccnc1 (stereo partly drawn) [Example 273, (3R)-3-(2-(2-chloro-5-fluoro-3,4-dihydroxyphenyl)-2-(3-((3-(nicotinamido)propyl)sulfonyl)-2-oxoimidazolidine-1-carboxamido)acetamido)-7-fluoro-2-hydroxy-3,4-dihydro-2H-benzo[e][1,2]oxaborinine-8-carboxylic acid] | > 64 | 16 to 32 (≈ 20.5 to 41 µM) | 4 to 8 (≈ 5.12 to 10.2 µM) | 32 to 64 (≈ 41 to 82 µM) | 2 to 4 (≈ 2.56 to 5.12 µM) | 4 to 8 (≈ 5.12 to 10.2 µM) | 16 to 32 (≈ 20.5 to 41 µM) | 2 to 4 (≈ 2.56 to 5.12 µM) | < 10 | < 10 | 16 to 32 (≈ 20.5 to 41 µM) | 16 to 32 (≈ 20.5 to 41 µM) | – | – | – | – | – | – | –
2 | O=C(NCCCS(=O)(=O)N1CCN(C(=O)N[C@@H](C(=O)N[C@H]2Cc3ccc(F)c(C(=O)O)c3OB2O)c2cc(F)c(O)c(O)c2Cl)C1=O)c1cccc(O)c1 [Example 271, (R)-3-((R)-2-(2-chloro-5-fluoro-3,4-dihydroxyphenyl)-2-(3-((3-(3-hydroxybenzamido)propyl)sulfonyl)-2-oxoimidazolidine-1-carboxamido)acetamido)-7-fluoro-2-hydroxy-3,4-dihydro-2H-benzo[e][1,2]oxaborinine-8-carboxylic acid] | > 64 | 4 to 8 (≈ 5.03 to 10.1 µM) | 1 to 2 (≈ 1.26 to 2.51 µM) | > 128 | 2 to 4 (≈ 2.51 to 5.03 µM) | 4 to 8 (≈ 5.03 to 10.1 µM) | 16 to 32 (≈ 20.1 to 40.2 µM) | 2 to 4 (≈ 2.51 to 5.03 µM) | < 10 | < 10 | 16 to 32 (≈ 20.1 to 40.2 µM) | 16 to 32 (≈ 20.1 to 40.2 µM) | – | – | – | – | – | – | –
3 | O=C(NCCCN1CCN(C(=O)N[C@@H](C(=O)N[C@H]2Cc3ccc(F)c(C(=O)O)c3OB2O)c2cc(F)c(O)c(O)c2Cl)C1=O)Nc1cccc(O)c1 [Example 258, (R)-3-((R)-2-(2-chloro-5-fluoro-3,4-dihydroxyphenyl)-2-(3-(3-(3-(3-hydroxyphenyl)ureido)propyl)-2-oxoimidazolidine-1-carboxamido)acetamido)-7-fluoro-2-hydroxy-3,4-dihydro-2H-benzo[e][1,2]oxaborinine-8-carboxylic acid] | > 64 | 4 to 8 (≈ 5.36 to 10.7 µM) | 1 to 2 (≈ 1.34 to 2.68 µM) | < 1 | < 1 | 4 to 8 (≈ 5.36 to 10.7 µM) | 4 to 8 (≈ 5.36 to 10.7 µM) | < 1 | < 10 | < 10 | 4 to 8 (≈ 5.36 to 10.7 µM) | 16 to 32 (≈ 21.4 to 42.8 µM) | – | – | – | – | – | – | –
4 | O=C(CN1CCN(C(=O)NC(C(=O)N[C@H]2Cc3ccc(F)c(C(=O)O)c3OB2O)c2cc(F)c(O)c(O)c2Cl)C(=O)C1=O)NCc1ccccc1 (stereo partly drawn) [Example 238] | – | – | – | 2 to 4 (≈ 2.74 to 5.48 µM) | 8 to 16 (≈ 11 to 21.9 µM) | – | – | 2 to 4 (≈ 2.74 to 5.48 µM) | < 10 | < 10 | – | – | > 64 | 4 to 8 (≈ 5.48 to 11 µM) | 1 to 2 (≈ 1.37 to 2.74 µM) | 16 to 32 (≈ 21.9 to 43.8 µM) | 4 to 8 (≈ 5.48 to 11 µM) | 16 to 32 (≈ 21.9 to 43.8 µM) | 16 to 32 (≈ 21.9 to 43.8 µM)
5 | O=C(CN1CCN(C(=O)NC(C(=O)N[C@H]2Cc3ccc(F)c(C(=O)O)c3OB2O)c2cc(F)c(O)c(O)c2Cl)C(=O)C1=O)Nc1cccnc1 (stereo partly drawn) [Example 234, (3R)-3-(2-(2-chloro-5-fluoro-3,4-dihydroxyphenyl)-2-(2,3-dioxo-4-(2-oxo-2-(pyridin-3-ylamino)ethyl)piperazine-1-carboxamido)acetamido)-7-fluoro-2-hydroxy-3,4-dihydro-2H-benzo[e][1,2]oxaborinine-8-carboxylic acid] | – | – | – | 32 to 64 (≈ 44.6 to 89.3 µM) | 8 to 16 (≈ 11.2 to 22.3 µM) | – | – | 2 to 4 (≈ 2.79 to 5.58 µM) | < 10 | < 10 | – | – | 16 to 32 (≈ 22.3 to 44.6 µM) | 4 to 8 (≈ 5.58 to 11.2 µM) | 1 to 2 (≈ 1.4 to 2.79 µM) | 16 to 32 (≈ 22.3 to 44.6 µM) | 4 to 8 (≈ 5.58 to 11.2 µM) | 4 to 8 (≈ 5.58 to 11.2 µM) | 16 to 32 (≈ 22.3 to 44.6 µM)
6 | O=C(NCCN1CCN(C(=O)N[C@@H](C(=O)N[C@H]2Cc3ccc(F)c(C(=O)O)c3OB2O)c2cc(F)c(O)c(O)c2Cl)C(=O)C1=O)Nc1ccncc1 [Example 221, (R)-3-((R)-2-(2-chloro-5-fluoro-3,4-dihydroxyphenyl)-2-(2,3-dioxo-4-(2-(3-(pyridin-4-yl)ureido)ethyl)piperazine-1-carboxamido)acetamido)-7-fluoro-2-hydroxy-3,4-dihydro-2H-benzo[e][1,2]oxaborinine-8-carboxylic acid] | – | – | – | 8 to 16 (≈ 10.7 to 21.5 µM) | 2 to 4 (≈ 2.68 to 5.36 µM) | – | – | 2 to 4 (≈ 2.68 to 5.36 µM) | < 10 | < 10 | – | – | > 64 | 4 to 8 (≈ 5.36 to 10.7 µM) | 1 to 2 (≈ 1.34 to 2.68 µM) | > 64 | 4 to 8 (≈ 5.36 to 10.7 µM) | 16 to 32 (≈ 21.5 to 42.9 µM) | 16 to 32 (≈ 21.5 to 42.9 µM)
7 | O=C(NCCCS(=O)(=O)N1CCN(C(=O)NC(C(=O)N[C@H]2Cc3ccc(F)c(C(=O)O)c3OB2O)c2cc(F)c(O)c(O)c2Cl)C1=O)c1ccc(O)cc1 (stereo partly drawn) [Example 269, (3R)-3-(2-(2-chloro-5-fluoro-3,4-dihydroxyphenyl)-2-(3-((3-(4-hydroxybenzamido)propyl)sulfonyl)-2-oxoimidazolidine-1-carboxamido)acetamido)-7-fluoro-2-hydroxy-3,4-dihydro-2H-benzo[e][1,2]oxaborinine-8-carboxylic acid] | > 64 | 4 to 8 (≈ 5.03 to 10.1 µM) | 4 to 8 (≈ 5.03 to 10.1 µM) | 8 to 16 (≈ 10.1 to 20.1 µM) | 8 to 16 (≈ 10.1 to 20.1 µM) | 16 to 32 (≈ 20.1 to 40.2 µM) | 16 to 32 (≈ 20.1 to 40.2 µM) | 2 to 4 (≈ 2.51 to 5.03 µM) | < 10 | < 10 | 16 to 32 (≈ 20.1 to 40.2 µM) | 16 to 32 (≈ 20.1 to 40.2 µM) | – | – | – | – | – | – | –
8 | O=C(NCCS(=O)(=O)N1CCN(C(=O)N[C@@H](C(=O)N[C@H]2Cc3ccc(F)c(C(=O)O)c3OB2O)c2cc(F)c(O)c(O)c2Cl)C1=O)c1nccs1 [Example 264, (R)-3-((R)-2-(2-chloro-5-fluoro-3,4-dihydroxyphenyl)-2-(2-oxo-3-((2-(thiazole-2-carboxamido)ethyl)sulfonyl)imidazolidine-1-carboxamido)acetamido)-7-fluoro-2-hydroxy-3,4-dihydro-2H-benzo[e][1,2]oxaborinine-8-carboxylic acid] | 16 to 32 (≈ 20.7 to 41.4 µM) | 4 to 8 (≈ 5.18 to 10.4 µM) | 1 to 2 (≈ 1.29 to 2.59 µM) | 2 to 4 (≈ 2.59 to 5.18 µM) | < 1 | 4 to 8 (≈ 5.18 to 10.4 µM) | 16 to 32 (≈ 20.7 to 41.4 µM) | < 1 | < 10 | < 10 | 16 to 32 (≈ 20.7 to 41.4 µM) | 16 to 32 (≈ 20.7 to 41.4 µM) | – | – | – | – | – | – | –
9 | O=C(NCCCN1CCN(C(=O)N[C@H](C(=O)N[C@H]2Cc3ccc(F)c(C(=O)O)c3OB2O)c2cc(F)c(O)c(O)c2Cl)C1=O)c1cccc(O)c1 [Example 254, (R)-3-((S)-2-(2-chloro-5-fluoro-3,4-dihydroxyphenyl)-2-(3-(3-(3-hydroxybenzamido)propyl)-2-oxoimidazolidine-1-carboxamido)acetamido)-7-fluoro-2-hydroxy-3,4-dihydro-2H-benzo[e][1,2]oxaborinine-8-carboxylic acid] | > 64 | > 64 | > 64 | > 128 | 32 to 64 (≈ 43.7 to 87.4 µM) | > 64 | > 64 | > 128 | 50 to 250 | 50 to 250 | > 64 | > 64 | – | – | – | – | – | – | –
10 | O=C(NCCN1CCN(C(=O)NC(C(=O)N[C@H]2Cc3ccc(F)c(C(=O)O)c3OB2O)c2cc(F)c(O)c(O)c2Cl)C1=O)c1cccnc1 (stereo partly drawn) [Example 246, (3R)-3-(2-(2-chloro-5-fluoro-3,4-dihydroxyphenyl)-2-(3-(2-(nicotinamido)ethyl)-2-oxoimidazolidine-1-carboxamido)acetamido)-7-fluoro-2-hydroxy-3,4-dihydro-2H-benzo[e][1,2]oxaborinine-8-carboxylic acid] | > 64 | 16 to 32 (≈ 22.8 to 45.5 µM) | 4 to 8 (≈ 5.69 to 11.4 µM) | 2 to 4 (≈ 2.85 to 5.69 µM) | 2 to 4 (≈ 2.85 to 5.69 µM) | 16 to 32 (≈ 22.8 to 45.5 µM) | 16 to 32 (≈ 22.8 to 45.5 µM) | 2 to 4 (≈ 2.85 to 5.69 µM) | < 10 | 10 to 50 | 16 to 32 (≈ 22.8 to 45.5 µM) | 16 to 32 (≈ 22.8 to 45.5 µM) | – | – | – | – | – | – | –
